According to patent publication US20190069549A1, “HERBICIDAL COMPOSITIONS CONTAINING PYRIDINE CARBOXYLIC ACIDS OR DERIVATIVES THEREOF, WITH GLYPHOSATE OR GLUFOSINATE, OR DERIVATIVES THEREOF” (Dow AgroSciences LLC, priority 2017, published 2019):

Columns and labels:
Assay in all cases: Postemergence herbicidal activity, greenhouse trial (visual injury)
Assay type in all cases: in vivo
[1] = system: Abutilon theophrasti (velvetleaf), ABUTH; details: 20-22 d
Experimental: (§1) Seeds of the desired test plant species were planted in Sun Gro MetroMix® 360 planting mixture, which typically has a pH of 6.0 to 6.8 and an organic matter content of about 30 percent, in plastic pots with a surface area of 103.2 square centimeters (cm^2). When required to ensure good germination and healthy plants, a fungicide treatment and/or other chemical or physical treatment was applied. The plants were grown for 7-36 days (d) in a greenhouse with an approximate 14-hour (h) photoperiod which was maintained at about 23° C. during the day and 22° C. during the night. Nutrients and water were added on a regular basis and supplemental lighting was provided with overhead metal halide 1000-Watt lamps as necessary. The plants were employed for testing when they reached the second or third true leaf stage.
(§2) Weighed amounts of technical material were dissolved in a volume of 97:3 volume per volume (v/v) acetone/dimethyl sulfoxide (DMSO) to make stock solutions. […] The concentrated stock solutions were diluted with an aqueous mixture of 1.5% v/v of Agri-dex crop oil concentrate to provide the appropriate application rates. Compound requirements are based upon a 12 milliliter (mL) application volume at a rate of 187 liters per hectare (L/ha). Spray solutions of the experimental compound mixtures were prepared by adding the stock solutions to the appropriate amount of dilution solution to form a 12 mL spray solution in two-way combinations. Formulated compounds were applied to the plant material with an overhead Mandel track sprayer equipped with 8002E nozzles calibrated to deliver 187 L/ha over an application area of 0.503 square meters (m^2) at a spray height of 18 inches (43 centimeters (cm)) above average plant canopy. Control plants were sprayed in the same manner with the solvent blank. Application rates for component (a) are in g ae/ha, and application rates for component (b) are in g ai/ha.
(§3) The treated plants and control plants were placed in a greenhouse as described above and watered by sub-irrigation to prevent wash-off of the test compounds. After 20-22 d, the condition of the test plants as compared with that of the control plants was determined visually and scored on a scale of 0 to 100 percent where 0 corresponds to no injury and 100 corresponds to complete kill. The condition of the test plants was compared with that of the control plants as determined visually and scored on a scale of 0 to 100 percent, where 0 corresponds to no injury and 100 corresponds to complete kill. Colby' s equation was used to determine the herbicidal effects expected from the mixtures.
(§4) Compound 1 was formulated as an EC and was combined with glyphosate or glufosinate and applied to weeds, and the phytotoxicity of the herbicidal composition was measured.

[2] = system: Brassica alboglabra (chinese kale), BRSAG; details: 5 g ae/ha alone, 20-22 d, Table 2
Experimental: as §1, §2, §3, §4

[3] = system: Brassica juncea (brown mustard), BRSJU; details: 5 g ae/ha alone, 20-22 d, Table 2
Experimental: as §1, §2, §3, §4

[4] = system: Brassica napus (spring rape; Roundup Ready), BRSNN-RR; details: 5 g ae/ha alone, 20-22 d, Table 2
Experimental: as §1, §2, §3, §4

[5] = system: Brassica napus (winter rape), BRSNW; details: 20-22 d
Experimental: as §1, §2, §3, §4

[6] = system: Brassica rapa (turnip), BRSRR; details: 20-22 d
Experimental: as §1, §2, §3, §4

[7] = system: Cirsium arvense (thistle), CIRAR; details: 20-22 d
Experimental: as §1, §2, §3, §4

[8] = system: Digitaria sanguinalis (large crabgrass), DIGSA; details: 20-22 d
Experimental: as §1, §2, §3, §4

[9] = system: Helianthus annuus (sunflower), HELAN; details: 20-22 d
Experimental: as §1, §2, §3, §4

[10] = system: Polygonum convolvulus (wild buckwheat), POLCO; details: 20-22 d
Experimental: as §1, §2, §3, §4

[11] = system: Triticum aestivum (winter wheat), TRZAW; details: 20-22 d
Experimental: as §1, §2, §3, §4

[12] = system: Viola tricolor (wild pansy), VIOTR; details: 20-22 d
Experimental: as §1, §2, §3, §4

[13] = system: Zea mays (maize/corn), ZEAMX; details: 20-22 d
Experimental: as §1, §2, §3, §4

In the case of Nc1c(F)c(-c2ccc3cc[nH]c3c2F)nc(C(=O)O)c1Cl [Compound 1], the “% Visual Injury” value ([1]; 5 g ae/ha alone, Table 1) is reported as 60%, the “% Visual Injury” value ([1]; 5 g ae/ha alone, Table 2) is reported as 60% and the “% Visual Injury” value [2] is reported as 15%. The “% Visual Injury” value [3] was 60%, the “% Visual Injury” value [4] was 35% and the “% Visual Injury” value ([5]; BRSNW* (retest), 5 g ae/ha alone, Table 1) was 50%. The “% Visual Injury” value ([5]; BRSNW* (retest), 5 g ae/ha alone, Table 2) was 30%, the “% Visual Injury” value ([5]; BRSNW, 5 g ae/ha alone, Table 1) was 30% and the “% Visual Injury” value ([5]; BRSNW, 5 g ae/ha alone, Table 2) was 50%. The “% Visual Injury” value ([6]; 5 g ae/ha alone, Table 1) was 50%, the “% Visual Injury” value ([6]; 5 g ae/ha alone, Table 2) was 50% and the “% Visual Injury” value ([7]; 5 g ae/ha alone, Table 1) was 10%. The “% Visual Injury” value ([7]; 5 g ae/ha alone, Table 2) was 10%, the “% Visual Injury” value ([8]; 5 g ae/ha alone, Table 1) was 5% and the “% Visual Injury” value ([8]; 5 g ae/ha alone, Table 2) was 5%. For the same compound, the “% Visual Injury” value ([9]; 5 g ae/ha alone, Table 1) was 70%, the “% Visual Injury” value ([9]; 5 g ae/ha alone, Table 2) was 70% and the “% Visual Injury” value ([10]; 5 g ae/ha alone, Table 1) was 65%. The “% Visual Injury” value ([10]; 5 g ae/ha alone, Table 2) was 65%, the “% Visual Injury” value ([11]; 5 g ae/ha alone, Table 1) was 5% and the “% Visual Injury” value ([11]; 5 g ae/ha alone, Table 2) was 5%. For the same compound, the “% Visual Injury” value ([12]; 5 g ae/ha alone, Table 1) was 5%, the “% Visual Injury” value ([12]; 5 g ae/ha alone, Table 2) was 5% and the “% Visual Injury” value ([13]; 5 g ae/ha alone, Table 1) was 0%. The “% Visual Injury” value ([13]; 5 g ae/ha alone, Table 2) was 0%.
O=C(O)CNCP(=O)(O)O [Glyphosate, N-(phosphonomethyl)glycine] was tested, and the “% Visual Injury” value ([1]; 210 g ai/ha alone, Table 1) was 60%, the “% Visual Injury” value ([5]; BRSNW* (retest), 210 g ai/ha alone, Table 1) was 30% and the “% Visual Injury” value ([5]; BRSNW, 210 g ai/ha alone, Table 1) was 20%. For the same compound, the “% Visual Injury” value ([6]; 210 g ai/ha alone, Table 1) was 65%, the “% Visual Injury” value ([7]; 210 g ai/ha alone, Table 1) was 25% and the “% Visual Injury” value ([8]; 210 g ai/ha alone, Table 1) was 70%. The “% Visual Injury” value ([9]; 210 g ai/ha alone, Table 1) was 65%, the “% Visual Injury” value ([10]; 210 g ai/ha alone, Table 1) was 45% and the “% Visual Injury” value ([11]; 210 g ai/ha alone, Table 1) was 75%. For the same compound, the “% Visual Injury” value ([12]; 210 g ai/ha alone, Table 1) was 50% and the “% Visual Injury” value ([13]; 210 g ai/ha alone, Table 1) was 0%.
